Assay results taken from US8815881B2 (Hoffmann-La Roche Inc., priority 2010, dated 2014).

Molecular target: endogenous cellular BACE2 in the Ins1e rat cell line (Rattus norvegicus (Rat), UniProt Q6IE75)
Experiment: Assay for BACE inhibition by measuring cellular TMEM27 cleavage (ELISA of shed hTMEM27 from INS-TMEM27 cells)
Format: cell-based
Details: assay a): cellular TMEM27 cleavage, INS-TMEM27 cells (superscript a)
Text: a) Assay for BACE Inhibition by Measuring Cellular TMEM27 Cleavage:
The assay uses the principle of inhibition of human TMEM27 cleavage by endogenous cellular BACE2 in the Ins1e rat cell line and shedding from the cell surface into the culture medium, followed by detection in an ELISA assay. Inhibition of BACE2 prevents the cleavage and shedding in a dose-dependent manner.
The stable cell line “INS-TMEM27” represents an INS1e-derived cell line with inducible expression (using the TetOn system) of full-length hTMEM27 in a doxycycline-dependent manner. The cells are cultured throughout the experiment in RPMI1640+Glutamax (Invitrogen) Penicillin/Streptomycin, 10% Fetal bovine serum, […], […], 100 micrograms/ml G418 and 100 microgram/ml hygromycin and are grown inadherent culture at 37° C. in a standard CO2 cell culture incubator.
INS-TMEM27 cells are seeded in 96-well plates. After 2 days in culture, BACE2 inhibitor is added in a range of concentrations as required by the assay and after a further two hours, doxycycline is added to a final concentration of 500 ng/ml. The cells are incubated for a further 46 hours and the supernatant harvested for detection of shed TMEM27.
An ELISA assay (using a pair of mouse anti-human-TMEM27 antibodies, raised against the extracellular domain of TMEM27) is used for detection of TMEM27 in the culture medium. An EC50 for BACE2 inhibition is calculated using the ELISA readout for each inhibitor concentration with standard curve-fitting software such as XLFit for the Excel spreadsheet program.

endogenous cellular BACE2 in the Ins1e rat cell line, sequence (Q6IE75 63-514): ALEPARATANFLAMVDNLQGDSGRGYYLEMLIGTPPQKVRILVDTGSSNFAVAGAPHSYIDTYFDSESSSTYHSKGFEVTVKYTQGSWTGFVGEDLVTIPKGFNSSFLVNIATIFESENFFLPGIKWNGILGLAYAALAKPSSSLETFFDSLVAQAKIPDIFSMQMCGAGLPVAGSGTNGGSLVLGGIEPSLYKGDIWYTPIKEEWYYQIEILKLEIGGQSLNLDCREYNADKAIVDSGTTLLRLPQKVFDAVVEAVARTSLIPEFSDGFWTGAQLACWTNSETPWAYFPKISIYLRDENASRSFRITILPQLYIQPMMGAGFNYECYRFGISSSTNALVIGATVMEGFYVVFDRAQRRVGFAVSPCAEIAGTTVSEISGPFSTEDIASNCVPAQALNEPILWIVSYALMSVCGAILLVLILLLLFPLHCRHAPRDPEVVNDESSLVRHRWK

Structure (SMILES)	IC50 [nM]
CN1C(=O)C(C)(C)[C@@](C)(c2cccc(NC(=O)C3(C#N)CC3)c2)N=C1N [Example 1, 1-Cyano-cyclopropanecarboxylic acid [3-((R)-2-amino-1,4,5,5-tetramethyl-6-oxo-1,4,5,6-tetrahydro-pyrimidin-4-yl)-phenyl]-amide]	57
CN1C(=O)C(C)(C)[C@@](C)(c2cccc(NC(=O)C3(C(F)(F)F)CC3)c2)N=C1N [Example 2, 1-Trifluoromethyl-cyclopropanecarboxylic acid [3-((R)-2-amino-1,4,5,5-tetramethyl-6-oxo-1,4,5,6-tetrahydro-pyrimidin-4-yl)-phenyl]-amide]	82
CN1C(=O)C(C)(C)[C@@](C)(c2cc(NC(=O)CC(F)(F)F)ccc2F)N=C1N [Example 3, N-[3-((S)-2-Amino-1,4,5,5-tetramethyl-6-oxo-1,4,5,6-tetrahydro-pyrimidin-4-yl)-4-fluoro-phenyl]-3,3,3-trifluoro-propionamide]	11
CN1C(=O)C(C)(C)[C@@](C)(c2cc(NC(=O)C3(C(F)(F)F)CCC3)ccc2F)N=C1N [Example 4, 1-Trifluoromethyl-cyclobutanecarboxylic acid [3-((S)-2-amino-1,4,5,5-tetramethyl-6-oxo-1,4,5,6-tetrahydro-pyrimidin-4-yl)-4-fluoro-phenyl]-amide]	85
CN1C(=O)C(C)(C)[C@@](C)(c2cc(NC(=O)C3(C(F)(F)F)CC3)ccc2F)N=C1N [Example 5, 1-Trifluoromethyl-cyclopropanecarboxylic acid [3-((S)-2-amino-1,4,5,5-tetramethyl-6-oxo-1,4,5,6-tetrahydro-pyrimidin-4-yl)-4-fluoro-phenyl]-amide]	11
CN1C(=O)C(C)(C)[C@@](C)(c2cc(NC(=O)C(F)(F)C(F)(F)F)ccc2F)N=C1N [Example 6, N-[3-((S)-2-Amino-1,4,5,5-tetramethyl-6-oxo-1,4,5,6-tetrahydro-pyrimidin-4-yl)-4-fluoro-phenyl]-2,2,3,3,3-pentafluoro-propionamide]	350
CN1C(=O)C(C)(C)[C@@](C)(c2cc(NC(=O)C(C(F)(F)F)C(F)(F)F)ccc2F)N=C1N [Example 7, N-[3-((S)-2-Amino-1,4,5,5-tetramethyl-6-oxo-1,4,5,6-tetrahydro-pyrimidin-4-yl)-4-fluoro-phenyl]-3,3,3-trifluoro-2-trifluoromethyl-propionamide]	1010
CN1C(=O)C(C)(C)[C@@](C)(c2cc(NC(=O)C(O)C(F)(F)F)ccc2F)N=C1N (stereo partly drawn) [Example 8, N-[3-((S)-2-Amino-1,4,5,5-tetramethyl-6-oxo-1,4,5,6-tetrahydro-pyrimidin-4-yl)-4-fluoro-phenyl]-3,3,3-trifluoro-2-hydroxy-propionamide]	9
CN1C(=O)C(C)(C)[C@@](C)(c2cc(NC(=O)[C@H]3CC3(F)F)ccc2F)N=C1N [Example 9, (R)-2,2-Difluoro-cyclopropanecarboxylic acid [3-((S)-2-amino-1,4,5,5-tetramethyl-6-oxo-1,4,5,6-tetrahydro-pyrimidin-4-yl)-4-fluoro-phenyl]-amide]	25
CN1C(=O)C(C)(C)[C@@](C)(c2cc(NC(=O)[C@@H]3CC3(F)F)ccc2F)N=C1N [Example 10, (S)-2,2-difluoro-cyclopropanecarboxylic acid [3-((S)-2-amino-1,4,5,5-tetramethyl-6-oxo-1,4,5,6-tetrahydro-pyrimidin-4-yl)-4-fluoro-phenyl]-amide]	2
CC[C@H]1C(=O)N(C)C(N)=N[C@]1(C)c1cccc(NC(=O)C2(C(F)(F)F)CC2)c1 [Example 11, 1-Trifluoromethyl-cyclopropanecarboxylic acid [3-((4S,5R)-2-amino-5-ethyl-1,4-dimethyl-6-oxo-1,4,5,6-tetrahydro-pyrimidin-4-yl)-phenyl]-amide]	14
CN1C(=O)C[C@@](C)(c2cccc(NC(=O)C3(C(F)(F)F)CC3)c2)N=C1N [Example 12, 1-Trifluoromethyl-cyclopropanecarboxylic acid [3-((S)-2-amino-1,4-dimethyl-6-oxo-1,4,5,6-tetrahydro-pyrimidin-4-yl)-phenyl]-amide]	23
C[C@@]1(c2cccc(NC(=O)C3(C(F)(F)F)CC3)c2)CC(=O)N(CC2CC2)C(N)=N1 [Example 13, 1-Trifluoromethyl-cyclopropanecarboxylic acid [3-((S)-2-amino-1-c-cyclopropylmethyl-4-methyl-6-oxo-1,4,5,6-tetrahydro-pyrimidin-4-yl)-phenyl]-amide]	190
CCC[C@@]1(c2cccc(NC(=O)C3(C(F)(F)F)CC3)c2)CC(=O)N(C)C(N)=N1 [Example 14, 1-Trifluoromethyl-cyclopropanecarboxylic acid [3-((S)-2-amino-1-methyl-6-oxo-4-propyl-1,4,5,6-tetrahydro-pyrimidin-4-yl)-phenyl]-amide]	120
CN1C(=O)C[C@]2(CCc3ccc(NC(=O)C4(C(F)(F)F)CC4)cc32)N=C1N [Example 15, (S)—N-(2′-Amino-1′-methyl-6′-oxo-2,3,5′,6′-tetrahydro-1′H-spiro[indene-1,4′-pyrimidine]-6-yl)-1-(trifluoromethyl)cyclopropanecarboxamide]	7
CN1C(=O)C(C)(C)[C@@](C)(c2cc(NC(=O)C(C)(C)F)ccc2F)N=C1N [Example 16, (S)—N-(3-(2-Amino-1,4,5,5-tetramethyl-6-oxo-1,4,5,6-tetrahydropyrimidin-4-yl)-4-fluorophenyl)-2-fluoro-2-methylpropanamide]	9

Continued, values first:

IC50 [nM]	Structure (SMILES)
360	CN1C(=O)C(C)(C)[C@@](C)(c2cc(NC(=O)C3CC3)ccc2F)N=C1N [Example 17, (S)—N-(3-(2-Amino-1,4,5,5-tetramethyl-6-oxo-1,4,5,6-tetrahydropyrimidin-4-yl)-4-fluorophenyl)cyclopropanecarboxamide]
23	CN1C(=O)C(C)(C)[C@@](C)(c2cc(NC(=O)C3(C)CC3)ccc2F)N=C1N [Example 18, (S)—N-(3-(2-Amino-1,4,5,5-tetramethyl-6-oxo-1,4,5,6-tetrahydropyrimidin-4-yl)-4-fluorophenyl)-1-methylcyclopropanecarboxamide]
74	CN1C(=O)C(C)(C)[C@@](C)(c2cc(NC(=O)C3CC3(C)C)ccc2F)N=C1N (stereo partly drawn) [Example 19, N-(3-((S)-2-Amino-1,4,5,5-tetramethyl-6-oxo-1,4,5,6-tetrahydropyrimidin-4-yl)-4-fluorophenyl)-2,2-dimethylcyclopropanecarboxamide]
66	COC(F)(C(=O)Nc1ccc(F)c([C@@]2(C)N=C(N)N(C)C(=O)C2(C)C)c1)C(F)(F)F (stereo partly drawn) [Example 20, N-(3-((S)-2-Amino-1,4,5,5-tetramethyl-6-oxo-1,4,5,6-tetrahydropyrimidin-4-yl)-4-fluorophenyl)-2,3,3,3-tetrafluoro-2-methoxypropanamide]
14	CN1C(=O)C(C)(C)[C@@](C)(c2cc(NC3CCCC3)ccc2F)N=C1N [Example 21, (S)-2-Amino-6-(5-(cyclopentylamino)-2-fluorophenyl)-3,5,5,6-tetramethyl-5,6-dihydropyrimidin-4(3H)-one]
5	CN1C(=O)C(C)(C)[C@@](C)(c2cc(NC3CCOC3)ccc2F)N=C1N (stereo partly drawn) [Example 22, (S)-2-Amino-6-[2-fluoro-5-(tetrahydro-furan-3-ylamino)-phenyl]-3,5,5,6-tetramethyl-5,6-dihydro-3H-pyrimidin-4-one]
7	CCOC(=O)N1CCC(Nc2ccc(F)c([C@@]3(C)N=C(N)N(C)C(=O)C3(C)C)c2)C1 (stereo partly drawn) [Example 23, 3-[3-((S)-2-Amino-1,4,5,5-tetramethyl-6-oxo-1,4,5,6-tetrahydro-pyrimidin-4-yl)-4-fluoro-phenylamino]-pyrrolidine-1-carboxylic acid ethyl ester]
39	CC1CCC(Nc2ccc(F)c([C@@]3(C)N=C(N)N(C)C(=O)C3(C)C)c2)C1 (stereo partly drawn) [Example 24, (S)-2-Amino-6-[2-fluoro-5-(3-methyl-cyclopentylamino)-phenyl]-3,5,5,6-tetramethyl-5,6-dihydro-3H-pyrimidin-4-one]
4	CC1CCCC1Nc1ccc(F)c([C@@]2(C)N=C(N)N(C)C(=O)C2(C)C)c1 (stereo partly drawn) [Example 25, (S)-2-Amino-6-[2-fluoro-5-(2-methyl-cyclopentylamino)-phenyl]-3,5,5,6-tetramethyl-5,6-dihydro-3H-pyrimidin-4-one]
274	CN1C(=O)C(C)(C)[C@@](C)(c2cc(NC(=O)CC3CCCC3)ccc2F)N=C1N [Example 26, (S)—N-(3-(2-amino-1,4,5,5-tetramethyl-6-oxo-1,4,5,6-tetrahydropyrimidin-4-yl)-4-fluorophenyl)-2-cyclopentylacetamide]
157	CN1C(=O)C(C)(C)[C@@](C)(c2cc(NC(=O)CC3CCC3)ccc2F)N=C1N [Example 27, (S)—N-(3-(2-amino-1,4,5,5-tetramethyl-6-oxo-1,4,5,6-tetrahydropyrimidin-4-yl)-4-fluorophenyl)-2-cyclobutylacetamide]
43	CN1C(=O)C(C)(C)[C@@](C)(c2cc(NC(=O)CC3CC3)ccc2F)N=C1N [Example 28, (S)—N-(3-(2-amino-1,4,5,5-tetramethyl-6-oxo-1,4,5,6-tetrahydropyrimidin-4-yl)-4-fluorophenyl)-2-cyclopropylacetamide]
